Results from publication PMC3769973 (Organic & biomolecular chemistry, 2011).

Legend:
[1] = biological target: T1, proteasome β1 subunit (Homo sapiens, UniProt P28072); test: Competition assay versus MVB003 in living HEK cells, β1 band; assay type: cell-based; conditions: inhibitor 4 h
[2] = biological target: proteasome β5 subunit (Homo sapiens, UniProt P28074); test: Competition assay versus MVB003 in HEK293T lysate, β5 band; assay type: biochemical
[3] = biological target: T1, proteasome β1 subunit; test: Competition assay versus MVB003 in HEK293T lysate, β1 band; assay type: biochemical
[4] = biological target: proteasome β2 subunit (Homo sapiens, UniProt Q99436); test: Competition assay versus MVB003 in HEK293T lysate, β2 band; assay type: biochemical
[5] = tested on: proteasome in living HEK cells

Row | Compound | Potency in living HEK cells relative to NC001 [1] | IC50 [2] [nM] | IC50 [3] [nM] | IC50 [4] [µM] | Cell permeability [5] | Fold lower concentration for β5 inhibition compared to SylA ([2]; HEK lysate, Fig. 7) | Inhibition of β5 in HEK lysate ([2]; HEK lysate, at 100 nM inhibitor, Fig. 7)
1 | CC(C)C[C@H](NC(=O)[C@@H](NC(=O)N[C@H](C(=O)OC(C)(C)C)C(C)C)C(C)C)C(=O)[C@@]1(C)CO1 [Compound 5, tBuO-Val-urea-Val-Leu-EK2] | fivefold higher potency | ~50000 | 460 | > 50 |  |  | 
2 | CC(C)C[C@H](NC(=O)[C@@H](NC(=O)N[C@H](C(=O)O)C(C)C)C(C)C)C(=O)[C@@]1(C)CO1 [Compound 6, HO-Val-urea-Val-Leu-EK] |  | > 50000 | 1400 | > 50 |  |  | 
3 | CC(C)C[C@H](NC(=O)[C@@H](NC(=O)N[C@H](C(=O)NCc1ccccc1)C(C)C)C(C)C)C(=O)[C@@]1(C)CO1 [Compound 7, Benzylamide-Val-urea-Val-Leu-EK] |  | 2900 | 520 | > 50 |  |  | 
4 | CC(C)C[C@H](NC(=O)[C@@H](NC(=O)N[C@H](C(=O)OC(C)(C)C)C(C)C)C(C)C)C(=O)N[C@@H](CC(C)C)C(=O)[C@@]1(C)CO1 [Compound 13, tBuO-Val-urea-Val-Leu2-EK] |  | 16 | 1300 | 0.69 | cell permeable | about 100 fold | fully inhibits
5 | CC(C)C[C@H](NC(=O)[C@@H](NC(=O)N[C@H](C(=O)O)C(C)C)C(C)C)C(=O)N[C@@H](CC(C)C)C(=O)[C@@]1(C)CO1 [Compound 14, HO-Val-urea-Val-Leu2-EK] |  | 480 |  |  |  |  | 
6 | CC(C)C[C@H](NC(=O)[C@@H](NC(=O)N[C@H](C(=O)NCc1ccccc1)C(C)C)C(C)C)C(=O)N[C@@H](CC(C)C)C(=O)[C@@]1(C)CO1 [Compound 15, Benzylamide-Val-urea-Val-Leu2-EK] |  |  |  |  | cell permeable | about 100 fold | 
7 | CCCCCCCCCCNC(=O)N[C@H](C(=O)N[C@@H](CC(C)C)C(=O)N[C@@H](CC(C)C)C(=O)[C@@]1(C)CO1)C(C)C [Compound 16, Decyl-urea-Val-Leu2-EK] |  |  | > 50000 | > 50 |  |  | 
